Source: ChEMBL document CHEMBL3763143, “Novel morpholine scaffolds as selective dopamine (DA) D3 receptor antagonists” (Bioorg Med Chem Lett, 2016)
Active and inactive are the calls of the source. No cut-off for these calls is given here.

Columns and labels:
D(3) dopamine receptor [1] = target: D(3) dopamine receptor (Rattus norvegicus, UniProt P19020)
Description: Displacement of [125I]-7-OH-PIPAT from rat brain dopamine D3 receptor after 45 mins by microplate scintillation counting analysis

D(3) dopamine receptor [2] = target: T1, D(3) dopamine receptor (Homo sapiens, UniProt P35462); experiment: Agonist activity at human dopamine D3 receptor expressed in CHO cells after 90 mins by [35S]-GTPgamma S assay; type: cell-based
D(3) dopamine receptor [3] = target: T1, D(3) dopamine receptor; experiment: Antagonist activity at human dopamine D3 receptor expressed in CHO cells after 90 mins by [35S]-GTPgamma S assay; type: cell-based
[4] = target: Voltage-gated inwardly rectifying potassium channel KCNH2 (Homo sapiens, UniProt Q12809); experiment: Displacement of [3H]-dofetilide from human ERG potassium channel by scintillation proximity assay
[5] = target: Dopamine receptor D2 and D3 (Rattus norvegicus) (UniProt P19020+P61169); experiment: Selectivity ratio of Ki for rat brain dopamine D2 receptor to Ki for rat brain dopamine D3 receptor
[6] = target: T2, Muscarinic acetylcholine receptor M1 (Homo sapiens, UniProt P11229); experiment: Antagonist activity at muscarinic M1 receptor (unknown origin)
T2 sequence (P11229 whole entry): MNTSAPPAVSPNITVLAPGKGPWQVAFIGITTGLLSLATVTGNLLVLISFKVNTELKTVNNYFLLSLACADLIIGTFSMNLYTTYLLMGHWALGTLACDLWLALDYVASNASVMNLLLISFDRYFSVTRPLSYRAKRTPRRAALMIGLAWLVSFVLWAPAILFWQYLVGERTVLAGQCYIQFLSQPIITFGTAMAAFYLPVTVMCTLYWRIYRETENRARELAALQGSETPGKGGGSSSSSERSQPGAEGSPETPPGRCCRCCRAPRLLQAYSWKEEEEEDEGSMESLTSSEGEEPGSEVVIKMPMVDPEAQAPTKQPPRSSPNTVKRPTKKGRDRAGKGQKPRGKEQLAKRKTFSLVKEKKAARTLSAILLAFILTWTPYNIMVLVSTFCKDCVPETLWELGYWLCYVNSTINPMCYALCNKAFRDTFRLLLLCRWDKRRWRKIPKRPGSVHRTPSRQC

[7] = target: T3, D(4) dopamine receptor (Homo sapiens) (UniProt P21917); experiment: (§1) Binding affinity to dopamine D4 receptor (unknown origin)
T3 sequence (whole entry): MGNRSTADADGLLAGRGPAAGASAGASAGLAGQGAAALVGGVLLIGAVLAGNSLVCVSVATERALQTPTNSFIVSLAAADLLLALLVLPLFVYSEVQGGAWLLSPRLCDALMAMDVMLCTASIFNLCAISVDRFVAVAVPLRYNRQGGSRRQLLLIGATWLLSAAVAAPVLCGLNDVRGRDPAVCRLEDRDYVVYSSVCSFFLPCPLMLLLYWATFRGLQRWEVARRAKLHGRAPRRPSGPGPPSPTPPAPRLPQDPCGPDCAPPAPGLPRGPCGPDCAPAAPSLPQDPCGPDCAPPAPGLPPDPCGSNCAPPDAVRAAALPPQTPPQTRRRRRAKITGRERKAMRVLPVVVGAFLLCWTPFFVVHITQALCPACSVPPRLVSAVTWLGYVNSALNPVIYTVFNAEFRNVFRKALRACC

D(1A) dopamine receptor = D(1A) dopamine receptor (Homo sapiens, UniProt P21728); experiment: Binding affinity to dopamine D1 receptor (unknown origin)
[8] = target: Muscarinic acetylcholine receptor M3 (Homo sapiens, UniProt P20309); experiment: Binding affinity to muscarinic M3 receptor (unknown origin)
[9] = Half life in portal vein-cannulated rat; type: ADME, organism-based; details: in vivo
[10] = Bioavailability in portal vein-cannulated rat; type: ADME, organism-based; details: in vivo
D(4) dopamine receptor = target: T4, D(4) dopamine receptor (Homo sapiens, UniProt P21917); experiment: as §1
T4 sequence (P21917 whole entry): T3 sequence (whole entry)

[11] = Fraction unbound in portal vein-cannulated rat blood; type: ADME, tissue-based
Cytochrome P450 2D6 = Cytochrome P450 2D6 (Homo sapiens, UniProt P10635); experiment: Inhibition of human CYP2D6 expressed in bactosome; type: ADME
Cytochrome P450 2C19 = Cytochrome P450 2C19 (Homo sapiens, UniProt P33261); experiment: Inhibition of human CYP2C19 expressed in bactosome; type: ADME
[12] = Volume of distribution at steady state in portal vein-cannulated rat; type: ADME, organism-based; details: in vivo, read-out: Vdss
Cytochrome P450 1A2 = target: T5, Cytochrome P450 1A2 (Homo sapiens, UniProt P05177); experiment: Inhibition of human CYP1A2 expressed in bactosome; type: ADME
T5 sequence (P05177 whole entry): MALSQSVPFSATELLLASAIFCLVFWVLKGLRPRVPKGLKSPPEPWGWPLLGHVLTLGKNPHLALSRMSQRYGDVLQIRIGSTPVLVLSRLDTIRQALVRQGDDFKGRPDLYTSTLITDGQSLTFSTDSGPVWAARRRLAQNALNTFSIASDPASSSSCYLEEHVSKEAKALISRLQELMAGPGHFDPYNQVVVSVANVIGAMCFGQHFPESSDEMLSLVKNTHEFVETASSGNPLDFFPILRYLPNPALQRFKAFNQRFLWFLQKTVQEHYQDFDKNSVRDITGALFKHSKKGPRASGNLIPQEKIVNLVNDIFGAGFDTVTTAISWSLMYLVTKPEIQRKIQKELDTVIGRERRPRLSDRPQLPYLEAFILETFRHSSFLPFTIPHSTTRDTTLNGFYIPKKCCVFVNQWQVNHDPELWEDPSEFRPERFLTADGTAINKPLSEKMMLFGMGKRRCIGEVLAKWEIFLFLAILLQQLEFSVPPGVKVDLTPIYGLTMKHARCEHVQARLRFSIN

[13] = Fraction unbound in portal vein-cannulated rat brain; type: ADME, tissue-based
[14] = Intrinsic clearance in human liver microsomes assessed per mg of protein; type: ADME; details: read-out: CLH
Cytochrome P450 3A4 [15] = target: T6, Cytochrome P450 3A4 (Homo sapiens, UniProt P08684); experiment: Inhibition of human CYP3A4 expressed in bactosome using DBOMF as substrate; type: ADME
[16] = Blood clearance in portal vein-cannulated rat; type: ADME, organism-based; details: whole blood
[17] = Fraction absorbed in portal vein-cannulated rat; type: ADME, organism-based; details: in vivo
Cytochrome P450 3A4 [18] = target: T6, Cytochrome P450 3A4; experiment: Inhibition of human CYP3A4 expressed in bactosome using 7BQ as substrate; type: ADME
Cytochrome P450 2C9 = Cytochrome P450 2C9 (Homo sapiens, UniProt P11712); experiment: Inhibition of human CYP2C9 expressed in bactosome; type: ADME
[19] = Intrinsic clearance in rat liver microsomes assessed per mg of protein; type: ADME; details: read-out: CLH

Sequence of D(1A) dopamine receptor (P21728 whole entry): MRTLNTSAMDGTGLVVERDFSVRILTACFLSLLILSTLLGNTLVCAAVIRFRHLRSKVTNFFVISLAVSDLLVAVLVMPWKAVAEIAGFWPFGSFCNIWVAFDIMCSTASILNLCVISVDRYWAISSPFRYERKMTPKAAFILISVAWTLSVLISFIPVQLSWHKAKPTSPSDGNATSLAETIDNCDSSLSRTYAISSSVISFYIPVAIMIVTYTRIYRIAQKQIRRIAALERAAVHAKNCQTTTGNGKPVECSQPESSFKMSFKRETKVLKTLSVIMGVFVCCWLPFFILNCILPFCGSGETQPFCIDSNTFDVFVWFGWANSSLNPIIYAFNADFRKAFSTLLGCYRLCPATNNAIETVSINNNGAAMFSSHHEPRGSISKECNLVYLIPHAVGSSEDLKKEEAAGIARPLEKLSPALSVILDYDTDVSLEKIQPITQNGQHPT
Sequence of Voltage-gated inwardly rectifying potassium channel KCNH2 (Q12809 whole entry): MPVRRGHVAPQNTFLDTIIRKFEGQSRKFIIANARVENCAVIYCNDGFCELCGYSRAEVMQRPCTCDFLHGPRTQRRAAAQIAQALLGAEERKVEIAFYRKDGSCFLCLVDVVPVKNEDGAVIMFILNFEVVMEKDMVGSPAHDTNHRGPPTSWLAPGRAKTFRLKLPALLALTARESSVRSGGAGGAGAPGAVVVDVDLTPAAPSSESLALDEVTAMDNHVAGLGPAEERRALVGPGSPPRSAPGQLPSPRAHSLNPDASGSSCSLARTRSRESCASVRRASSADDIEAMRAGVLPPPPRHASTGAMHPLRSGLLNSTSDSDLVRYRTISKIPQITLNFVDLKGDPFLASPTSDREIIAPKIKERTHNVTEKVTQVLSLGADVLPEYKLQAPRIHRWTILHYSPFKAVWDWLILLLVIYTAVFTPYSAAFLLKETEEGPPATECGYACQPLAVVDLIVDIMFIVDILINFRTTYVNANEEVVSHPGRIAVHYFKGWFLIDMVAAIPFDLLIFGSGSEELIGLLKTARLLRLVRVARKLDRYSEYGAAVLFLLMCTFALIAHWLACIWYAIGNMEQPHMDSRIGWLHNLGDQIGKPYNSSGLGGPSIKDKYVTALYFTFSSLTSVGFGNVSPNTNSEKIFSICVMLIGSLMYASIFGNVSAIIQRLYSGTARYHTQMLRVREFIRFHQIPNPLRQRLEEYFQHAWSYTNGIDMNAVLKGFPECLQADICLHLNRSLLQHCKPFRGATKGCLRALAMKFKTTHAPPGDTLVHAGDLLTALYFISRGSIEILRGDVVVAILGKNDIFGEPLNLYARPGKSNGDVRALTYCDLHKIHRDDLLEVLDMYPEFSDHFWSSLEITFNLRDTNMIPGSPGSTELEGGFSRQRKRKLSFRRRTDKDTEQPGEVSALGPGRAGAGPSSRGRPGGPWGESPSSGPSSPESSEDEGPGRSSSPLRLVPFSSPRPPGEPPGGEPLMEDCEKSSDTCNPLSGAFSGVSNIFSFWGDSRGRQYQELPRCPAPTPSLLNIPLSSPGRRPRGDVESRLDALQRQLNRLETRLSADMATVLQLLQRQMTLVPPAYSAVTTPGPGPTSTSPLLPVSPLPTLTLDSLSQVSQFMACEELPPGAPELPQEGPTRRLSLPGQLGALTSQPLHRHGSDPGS
Sequence of D(3) dopamine receptor (Rattus norvegicus, UniProt P19020) (P19020 whole entry): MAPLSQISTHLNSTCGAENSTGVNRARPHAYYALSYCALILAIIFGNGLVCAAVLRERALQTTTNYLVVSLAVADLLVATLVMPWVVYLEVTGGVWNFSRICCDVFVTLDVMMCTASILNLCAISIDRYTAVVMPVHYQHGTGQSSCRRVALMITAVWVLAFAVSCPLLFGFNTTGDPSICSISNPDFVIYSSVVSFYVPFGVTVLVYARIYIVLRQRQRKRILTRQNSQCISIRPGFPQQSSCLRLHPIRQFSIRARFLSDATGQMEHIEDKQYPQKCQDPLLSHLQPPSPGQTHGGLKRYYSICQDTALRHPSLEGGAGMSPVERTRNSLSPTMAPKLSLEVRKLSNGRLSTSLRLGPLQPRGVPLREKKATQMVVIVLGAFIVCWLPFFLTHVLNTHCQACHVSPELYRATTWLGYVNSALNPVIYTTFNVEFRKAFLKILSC
Sequence of Cytochrome P450 2D6 (P10635 whole entry): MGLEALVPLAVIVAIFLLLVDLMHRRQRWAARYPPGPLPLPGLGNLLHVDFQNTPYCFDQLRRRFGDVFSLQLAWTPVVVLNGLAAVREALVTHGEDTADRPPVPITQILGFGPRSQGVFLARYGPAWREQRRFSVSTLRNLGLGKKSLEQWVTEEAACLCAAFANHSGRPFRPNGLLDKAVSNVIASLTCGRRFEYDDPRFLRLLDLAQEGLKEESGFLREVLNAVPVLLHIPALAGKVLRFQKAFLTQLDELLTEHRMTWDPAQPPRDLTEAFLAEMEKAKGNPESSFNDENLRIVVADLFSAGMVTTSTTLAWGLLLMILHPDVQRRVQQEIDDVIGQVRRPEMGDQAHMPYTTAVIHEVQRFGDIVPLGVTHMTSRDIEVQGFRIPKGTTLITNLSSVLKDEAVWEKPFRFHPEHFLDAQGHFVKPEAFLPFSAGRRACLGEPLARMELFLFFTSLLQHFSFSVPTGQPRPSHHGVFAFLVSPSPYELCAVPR
T1 sequence (P35462 whole entry): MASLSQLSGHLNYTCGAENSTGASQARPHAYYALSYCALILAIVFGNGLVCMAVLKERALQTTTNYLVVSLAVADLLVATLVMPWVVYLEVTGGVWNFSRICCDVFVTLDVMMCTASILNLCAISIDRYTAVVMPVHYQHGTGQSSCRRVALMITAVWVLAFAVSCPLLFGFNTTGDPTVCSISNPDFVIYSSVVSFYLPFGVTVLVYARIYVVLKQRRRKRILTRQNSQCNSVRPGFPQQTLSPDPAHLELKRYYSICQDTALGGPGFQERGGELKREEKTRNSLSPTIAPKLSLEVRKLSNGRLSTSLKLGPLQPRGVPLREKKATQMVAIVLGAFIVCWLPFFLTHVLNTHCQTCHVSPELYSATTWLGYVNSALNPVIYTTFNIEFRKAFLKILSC
Sequence of Cytochrome P450 2C9 (P11712 whole entry): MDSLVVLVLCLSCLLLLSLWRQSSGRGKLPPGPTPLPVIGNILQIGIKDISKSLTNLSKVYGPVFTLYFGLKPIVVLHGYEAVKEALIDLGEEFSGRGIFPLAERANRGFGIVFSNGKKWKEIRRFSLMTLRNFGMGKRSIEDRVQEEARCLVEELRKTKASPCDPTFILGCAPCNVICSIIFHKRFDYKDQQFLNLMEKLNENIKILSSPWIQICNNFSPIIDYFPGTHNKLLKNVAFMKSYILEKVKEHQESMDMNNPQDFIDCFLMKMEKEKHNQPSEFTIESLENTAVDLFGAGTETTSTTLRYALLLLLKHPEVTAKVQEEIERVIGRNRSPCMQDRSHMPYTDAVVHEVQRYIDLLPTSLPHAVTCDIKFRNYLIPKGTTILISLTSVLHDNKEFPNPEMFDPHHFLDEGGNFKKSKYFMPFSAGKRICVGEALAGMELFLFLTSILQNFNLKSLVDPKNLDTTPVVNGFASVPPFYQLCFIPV
T6 sequence (P08684 whole entry): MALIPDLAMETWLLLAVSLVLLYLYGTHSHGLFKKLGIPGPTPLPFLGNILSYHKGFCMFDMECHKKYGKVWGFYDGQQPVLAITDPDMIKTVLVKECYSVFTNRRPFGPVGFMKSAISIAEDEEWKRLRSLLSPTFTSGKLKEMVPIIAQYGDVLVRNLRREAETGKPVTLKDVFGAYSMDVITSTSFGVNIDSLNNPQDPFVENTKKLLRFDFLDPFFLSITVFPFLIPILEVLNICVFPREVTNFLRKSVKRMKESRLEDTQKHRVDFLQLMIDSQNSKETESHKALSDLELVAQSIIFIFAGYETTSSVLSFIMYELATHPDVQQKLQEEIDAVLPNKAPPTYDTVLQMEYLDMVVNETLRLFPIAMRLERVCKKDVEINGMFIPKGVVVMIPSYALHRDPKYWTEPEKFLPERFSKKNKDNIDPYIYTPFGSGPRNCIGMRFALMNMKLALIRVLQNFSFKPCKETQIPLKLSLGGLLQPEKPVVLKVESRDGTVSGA
Sequence of Cytochrome P450 2C19 (P33261 whole entry): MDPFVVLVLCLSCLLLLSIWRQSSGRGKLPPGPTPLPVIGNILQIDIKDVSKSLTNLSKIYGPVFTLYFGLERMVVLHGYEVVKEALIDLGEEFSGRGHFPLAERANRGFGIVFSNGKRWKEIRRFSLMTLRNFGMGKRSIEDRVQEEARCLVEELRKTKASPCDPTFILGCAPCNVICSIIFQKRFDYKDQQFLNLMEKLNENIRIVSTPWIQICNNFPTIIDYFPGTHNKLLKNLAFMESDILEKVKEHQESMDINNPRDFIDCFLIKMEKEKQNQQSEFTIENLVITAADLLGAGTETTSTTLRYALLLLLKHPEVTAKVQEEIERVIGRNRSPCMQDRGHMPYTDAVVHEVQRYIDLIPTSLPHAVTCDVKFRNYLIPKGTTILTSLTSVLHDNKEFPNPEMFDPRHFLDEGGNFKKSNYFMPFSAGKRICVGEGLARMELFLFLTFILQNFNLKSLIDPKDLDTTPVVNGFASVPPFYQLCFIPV
Sequence of Dopamine receptor D2 and D3 (Rattus norvegicus) (P19020 whole entry, looked up): as the sequence (P19020 whole entry) above
Sequence of Dopamine receptor D2 and D3 (Rattus norvegicus) (P61169 whole entry, looked up): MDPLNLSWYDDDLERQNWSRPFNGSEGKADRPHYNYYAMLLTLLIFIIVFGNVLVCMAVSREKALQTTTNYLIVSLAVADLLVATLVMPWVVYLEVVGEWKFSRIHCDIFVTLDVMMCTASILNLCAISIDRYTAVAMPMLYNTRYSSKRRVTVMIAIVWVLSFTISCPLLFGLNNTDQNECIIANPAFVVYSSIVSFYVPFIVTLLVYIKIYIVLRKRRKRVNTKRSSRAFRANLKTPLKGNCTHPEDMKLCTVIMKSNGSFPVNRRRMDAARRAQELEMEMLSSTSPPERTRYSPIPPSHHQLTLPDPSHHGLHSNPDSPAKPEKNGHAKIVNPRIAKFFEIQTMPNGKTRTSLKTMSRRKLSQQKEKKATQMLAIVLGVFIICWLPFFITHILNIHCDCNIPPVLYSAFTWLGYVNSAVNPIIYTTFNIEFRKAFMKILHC

Compound	Ki (D(3) dopamine receptor [1]) [nM]	Ki (D(3) dopamine receptor [2]) [nM]	Ki (D(3) dopamine receptor [3]) [nM]	also measured
Cn1c(SCCCN2CCOC(c3ccc(C(F)(F)F)cc3)C2)nnc1-c1ccncc1 (racemic)	100	> 10000		
Cc1ncoc1-c1nnc(SCCCCN2CCOC(c3ccc(C(F)(F)F)cc3)C2)n1C (racemic)	79.4	> 10000	25.1	
Cn1c(SCCCN2CCOC(c3ccc(C(F)(F)F)cc3)C2)nnc1-c1ccc(-c2ncco2)cc1 (racemic) [listing 1 of 2 here]	5.01	> 10000	10	Ki [4]: 1000 nM
Cn1c(SCCCN2CCOC(c3ccc(C(F)(F)F)cc3)C2)nnc1-c1ccsc1 (racemic)	100	> 10000		
Cn1c(SCCCN2CCOC(c3ccc(C(F)(F)F)cc3)C2)nnc1-c1cccc(C(N)=O)c1 (racemic)	316	> 10000		
Cn1c(SCCCN2CCOC(c3ccc(C(F)(F)F)cc3)C2)nnc1C1CCCCC1 (racemic)	39.8	> 10000	20	Ratio Ki [5]: 200
Cc1ccc(C2CN(CCCSc3nnc(-c4ccc(-c5noc(C)n5)cc4)n3C)CCO2)cc1 (racemic)	79.4	> 10000	15.8	Ki [4]: 1000 nM
Cn1cncc1-c1nnc(SCCCN2CCOC(c3ccc(C(F)(F)F)cc3)C2)n1C (racemic)	631	> 10000		
Cn1c(SCCCN2CCOC(c3ccc(C(F)(F)F)cc3)C2)nnc1-c1ccc(C(N)=O)nc1 (racemic)	31.6	> 10000	15.8	Ki [4]: 2000 nM
Cc1ncoc1-c1nnc(SCCCN2CCOC(c3ccc(C(F)(F)F)cc3)C2)n1C (racemic)	126			
Cc1ncoc1-c1nnc(SCCCN2CCOC(c3ccc(C(F)(F)F)cc3F)C2)n1C (racemic)	200	> 10000		
Cn1c(SCCCN2CCOC(c3ccc(C(F)(F)F)cc3F)C2)nnc1-c1ccc(C(N)=O)cc1 (racemic)	63.1	> 10000	39.8	
Cn1c(SCCCN2CCOC(c3ccc(C(F)(F)F)cc3)C2)nnc1-c1cccnc1 (racemic)	251	> 10000		
Cn1c(SCCCN2CCOC(c3ccc(C(F)(F)F)cc3)C2)nnc1-c1ccc(C#N)cc1 (racemic)	100	> 10000		
Cn1cccc1-c1nnc(SCCCN2CCOC(c3ccc(C(F)(F)F)cc3)C2)n1C (racemic)	126	> 10000		
Cn1c(SCCCN2CCOC(c3ccc(C(F)(F)F)cc3)C2)nnc1-c1ccc(S(N)(=O)=O)cc1 (racemic)	126	> 10000		
Cc1ncoc1-c1nnc(SCCCN2CCOC(c3ccc(Br)cc3)C2)n1C (racemic)	200	> 10000		
Cn1c(SCCCN2CCOC(c3ccc(C(F)(F)F)cc3)C2)nnc1-c1nccs1 (racemic)	251	> 10000		

Compound	Ki (D(3) dopamine receptor [1]) [nM]	Ki (D(3) dopamine receptor [2]) [nM]	Ki (D(3) dopamine receptor [3]) [nM]	also measured
Cn1c(SCCCN2CCOC(c3ccc(C(F)(F)F)cc3)C2)nnc1-c1ccc(-n2cnnc2)cc1 (racemic)	126	> 10000		
Cn1c(SCCCN2CCOC(c3ccc(C(F)(F)F)cc3)C2)nnc1-c1cnccn1 (racemic)	158	> 10000		
Cc1nc(-c2ccc(-c3nnc(SCCCN4CCOC(c5ccc(C(F)(F)F)cc5)C4)n3C)cc2)no1 (racemic)	25.1	> 10000	10	
CC(=O)c1ccc(-c2nnc(SCCCN3CCOC(c4ccc(C(F)(F)F)cc4)C3)n2C)cc1 (racemic)	63.1	> 10000	20	
Cn1c(SCCCN2CCOC(c3ccc(C(F)(F)F)cc3)C2)nnc1-c1ccc(-c2nnco2)cc1 (racemic)	15.8	> 10000	12.6	
Cc1ccc(C2CN(CCCSc3nnc(-c4ocnc4C)n3C)CCO2)cc1 (racemic)	501	> 10000		
Cn1c(SCCCN2CCOC(c3ccc(C(F)(F)F)cc3)C2)nnc1-c1cncc(C(N)=O)c1 (racemic)	100	> 10000		
Cn1c(SCCCN2CCOC(c3ccc(C(F)(F)F)cc3)C2)nnc1-c1ccc(C(N)=O)cc1 (racemic) [listing 1 of 2 here]	31.6	> 10000	20	Ki [6]: 1000 nM; Ki [4]: 5010 nM
Cc1ncoc1-c1nnc(SCCCN2CCOC(c3ccc(F)cc3)C2)n1C (racemic)	398	> 10000		
Cn1c(SCCCN2CCOC(c3ccc(C(F)(F)F)cc3)C2)nnc1-c1ccc(-c2ncco2)cc1 (racemic) [listing 2 of 2 here]				Ratio Ki [5]: 300
Cn1c(SCCCN2CCOC(c3ccc(C(F)(F)F)cc3)C2)nnc1-c1ccc(C(N)=O)cc1 (racemic) [listing 2 of 2 here]				Activity [7]: inactive; Activity (D(1A) dopamine receptor): inactive; Activity [8]: inactive
Cc1ncoc1-c1nnc(SCCCN2CCOC(c3ccc(F)cc3)C2)n1C (stereo in doubt; 7)				Activity [7]: inactive; Activity (D(1A) dopamine receptor): inactive; Activity [8]: inactive
Cc1ncoc1-c1nnc(SCCCN2CCOC(c3ccc(C(F)(F)F)cc3)C2)n1C (stereo in doubt; 9)	50.1			half-life [9]: 3.5 h; bioavailability [10]: 58%; Ki (D(4) dopamine receptor): > 100000 nM; fraction unbound [11]: 0.062; Ki [6]: 1000 nM; Ki [4]: 3160 nM; IC50 (Cytochrome P450 2D6): > 6000 nM; IC50 (Cytochrome P450 2C19): > 6000 nM; Vd [12]: 2.5 L/kg; IC50 (Cytochrome P450 1A2): > 6000 nM; fraction unbound [13]: 0.071; microsomal CLint [14]: 40 µL/min/mg; Ki (D(1A) dopamine receptor): > 100000 nM; IC50 (Cytochrome P450 3A4 [15]): > 6000 nM; clearance [16]: 13.5 mL/min/kg; Fa [17]: 63%; Ki [8]: 1000 nM; IC50 (Cytochrome P450 3A4 [18]): > 6000 nM; IC50 (Cytochrome P450 2C9): > 6000 nM
Cc1ncoc1-c1nnc(SCCCCN2CCOC(c3ccc(C(F)(F)F)cc3)C2)n1C (stereo in doubt; 11)			15.8	pKi (D(3) dopamine receptor [1]): 7.1; Ki [4]: 2510 nM
Cn1c(SCCCN2CCOC(c3ccc(C(F)(F)F)cc3)C2)nnc1-c1ccc(C(N)=O)cc1 (stereo in doubt; 26)	15.8		6.31	fraction unbound [11]: 0.045; Ki [4]: 6310 nM; IC50 (Cytochrome P450 2D6): > 30000 nM; IC50 (Cytochrome P450 2C19): > 30000 nM; IC50 (Cytochrome P450 1A2): > 30000 nM; fraction unbound [13]: 0.03; microsomal CLint [14]: 63.2 µL/min/mg; IC50 (Cytochrome P450 3A4 [15]): > 30000 nM; microsomal CLint [19]: 16.3 µL/min/mg; IC50 (Cytochrome P450 3A4 [18]): > 30000 nM; IC50 (Cytochrome P450 2C9): > 30000 nM
Cn1c(SCCCN2CCOC(c3ccc(C(F)(F)F)cc3)C2)nnc1-c1ccc(-c2ncco2)cc1 (stereo in doubt; 33)	398			
Cn1c(SCCCN2CCOC(c3ccc(C(F)(F)F)cc3)C2)nnc1-c1ccc(-c2ncco2)cc1 (stereo in doubt; 34)	6.31		3.16	fraction unbound [11]: 0.008; Ki [4]: 1260 nM; IC50 (Cytochrome P450 2D6): > 3000 nM; IC50 (Cytochrome P450 2C19): > 3000 nM; IC50 (Cytochrome P450 1A2): > 3000 nM; fraction unbound [13]: 0.005; microsomal CLint [14]: 668 µL/min/mg; IC50 (Cytochrome P450 3A4 [15]): > 3000 nM; microsomal CLint [19]: 114 µL/min/mg; IC50 (Cytochrome P450 3A4 [18]): > 3000 nM; IC50 (Cytochrome P450 2C9): > 3000 nM
